Data reported in ChEMBL document CHEMBL4196088, “Induction of cell killing and autophagy by amphiphilic pyrrolidine derivatives on human pancreatic cancer cells” (Eur J Med Chem, 2018).
Active and inactive are the calls of the source. No cut-off for these calls is given here.

Legend:
SK-BR-3 = assay: Growth inhibition of human SKBR3 cells at 20 uM after 72 hrs; type: functional, cell-based
PK9 [1] = assay: Growth inhibition of human PK9 cells at 20 uM after 72 hrs by MTT assay; type: functional, cell-based
PANC-1 [2] = assay: Growth inhibition of human PANC1 cells at 20 uM after 72 hrs; type: functional, cell-based
BXPC-3 [3] = assay: Growth inhibition of human BxPC3 cells after 72 hrs by XTT assay; type: functional, cell-based; conditions: BXPC-3, 72 h
PANC-1 [4] = assay: Growth inhibition of human PANC1 cells after 72 hrs by XTT assay; type: functional, cell-based; conditions: PANC-1, 72 h
MIA PaCa-2 = assay: Growth inhibition of human MIAPaCa2 cells after 72 hrs by MTT assay; type: functional, cell-based; conditions: MIA PaCa-2, 72 h
PK9 [5] = assay: Growth inhibition of human PK9 cells after 72 hrs by MTT assay; type: functional, cell-based; conditions: PK9, 72 h
PANC-1 [6] = assay: Induction of apoptosis in human PANC1 cells assessed as accumulation at sub-G0/G1 phase at 20 uM after 24 hrs by propidium iodide staining based flow cytometry (reference value: 0.6 to 0.7%); type: functional
PANC-1 [7] = assay: Induction of apoptosis in human PANC1 cells assessed as accumulation at sub-G0/G1 phase at 20 uM after 48 hrs by propidium iodide staining based flow cytometry (reference value: 0.2 to 2.9%); type: functional
PANC-1 [8] = assay: Induction of apoptosis in human PANC1 cells assessed as accumulation at sub-G0/G1 phase at 20 uM after 72 hrs by propidium iodide staining based flow cytometry (reference value: 1.6 to 3.2%); type: functional
PANC-1 [9] = assay: Induction of apoptosis in human PANC1 cells assessed as accumulation at sub-G0/G1 phase at 10 uM after 24 hrs by propidium iodide staining based flow cytometry (reference value: 0.6 to 0.7%); type: functional
PANC-1 [10] = assay: Induction of apoptosis in human PANC1 cells assessed as accumulation at sub-G0/G1 phase at 10 uM after 48 hrs by propidium iodide staining based flow cytometry (reference value: 0.2 to 2.9%); type: functional
PANC-1 [11] = assay: Induction of apoptosis in human PANC1 cells assessed as accumulation at sub-G0/G1 phase at 10 uM after 72 hrs by propidium iodide staining based flow cytometry (reference value: 1.6 to 3.2%); type: functional
BXPC-3 [12] = assay: Induction of apoptosis in human BxPC3 cells assessed as accumulation at sub-G0/G1 phase at 20 uM after 24 hrs by propidium iodide staining based flow cytometry (reference value: 2.3%); type: functional
BXPC-3 [13] = assay: Induction of apoptosis in human BxPC3 cells assessed as accumulation at sub-G0/G1 phase at 20 uM after 48 hrs by propidium iodide staining based flow cytometry (reference value: 2.8%); type: functional
BXPC-3 [14] = assay: Induction of apoptosis in human BxPC3 cells assessed as accumulation at sub-G0/G1 phase at 20 uM after 72 hrs by propidium iodide staining based flow cytometry (reference value: 3.4%); type: functional
BXPC-3 [15] = assay: Induction of apoptosis in human BxPC3 cells assessed as accumulation at sub-G0/G1 phase harboring pSFFV-Bcl-XL at 20 uM after 24 hrs by propidium iodide staining based flow cytometry (reference value: 1.2%); type: functional
BXPC-3 [16] = assay: Induction of apoptosis in human BxPC3 cells assessed as accumulation at sub-G0/G1 phase harboring pSFFV-Bcl-XL at 20 uM after 48 hrs by propidium iodide staining based flow cytometry (reference value: 1.3%); type: functional
BXPC-3 [17] = assay: Induction of apoptosis in human BxPC3 cells assessed as accumulation at sub-G0/G1 phase harboring pSFFV-Bcl-XL at 20 uM after 72 hrs by propidium iodide staining based flow cytometry (reference value: 1.3%); type: functional
PK9 [18] = assay: Induction of apoptosis in human PK9 cells assessed as accumulation at sub-G0/G1 phase at 20 uM after 24 hrs by propidium iodide staining based flow cytometry (reference value: 2.2%); type: functional
PK9 [19] = assay: Induction of apoptosis in human PK9 cells assessed as accumulation at sub-G0/G1 phase at 20 uM after 48 hrs by propidium iodide staining based flow cytometry (reference value: 3.8%); type: functional
PK9 [20] = assay: Induction of apoptosis in human PK9 cells assessed as accumulation at sub-G0/G1 phase at 20 uM after 72 hrs by propidium iodide staining based flow cytometry (reference value: 4%); type: functional
[21] = Induction of apoptosis in HPNE cells assessed as accumulation at sub-G0/G1 phase at 20 uM after 24 hrs by propidium iodide staining based flow cytometry (reference value: 0.6%); type: cell-based; conditions: human
[22] = Induction of apoptosis in HPNE cells assessed as accumulation at sub-G0/G1 phase at 20 uM after 48 hrs by propidium iodide staining based flow cytometry (reference value: 0.7%); type: cell-based; conditions: human
[23] = Induction of apoptosis in HPNE cells assessed as accumulation at sub-G0/G1 phase at 20 uM after 72 hrs by propidium iodide staining based flow cytometry (reference value: 6.6%); type: cell-based; conditions: human
BXPC-3 [24] = assay: Induction of apoptosis in human BxPC3 cells assessed as accumulation at sub-G0/G1 phase at 10 uM after 24 hrs by propidium iodide staining based flow cytometry (reference value: 1.8%); type: functional
BXPC-3 [25] = assay: Induction of apoptosis in human BxPC3 cells assessed as accumulation at sub-G0/G1 phase at 10 uM after 48 hrs by propidium iodide staining based flow cytometry (reference value: 2.8%); type: functional
BXPC-3 [26] = assay: Induction of apoptosis in human BxPC3 cells assessed as accumulation at sub-G0/G1 phase at 10 uM after 72 hrs by propidium iodide staining based flow cytometry (reference value: 3.4%); type: functional
BXPC-3 [27] = assay: Induction of apoptosis in human BxPC3 cells harboring pSFFV-Bcl-XL assessed as accumulation at sub-G0/G1 phase at 10 uM after 24 hrs by propidium iodide staining based flow cytometry (reference value: 1.5%); type: functional
BXPC-3 [28] = assay: Induction of apoptosis in human BxPC3 cells harboring pSFFV-Bcl-XL assessed as accumulation at sub-G0/G1 phase at 10 uM after 48 hrs by propidium iodide staining based flow cytometry (reference value: 1.9%); type: functional
BXPC-3 [29] = assay: Induction of apoptosis in human BxPC3 cells harboring pSFFV-Bcl-XL assessed as accumulation at sub-G0/G1 phase at 10 uM after 72 hrs by propidium iodide staining based flow cytometry (reference value: 2%); type: functional
PK9 [30] = assay: Induction of apoptosis in human PK9 cells assessed as accumulation at sub-G0/G1 phase at 10 uM after 24 hrs by propidium iodide staining based flow cytometry (reference value: 2.2%); type: functional
PK9 [31] = assay: Induction of apoptosis in human PK9 cells assessed as accumulation at sub-G0/G1 phase at 10 uM after 48 hrs by propidium iodide staining based flow cytometry (reference value: 3.8%); type: functional
PK9 [32] = assay: Induction of apoptosis in human PK9 cells assessed as accumulation at sub-G0/G1 phase at 10 uM after 72 hrs by propidium iodide staining based flow cytometry (reference value: 4%); type: functional
Fibroblast [33] = assay: Induction of apoptosis in human primary fibroblasts assessed as accumulation at sub-G0/G1 phase at 10 uM after 24 hrs by propidium iodide staining based flow cytometry (reference value: 4.8%); type: cell-based
Fibroblast [34] = assay: Induction of apoptosis in human primary fibroblasts assessed as accumulation at sub-G0/G1 phase at 10 uM after 48 hrs by propidium iodide staining based flow cytometry (reference value: 6.1%); type: cell-based
Fibroblast [35] = assay: Induction of apoptosis in human primary fibroblasts assessed as accumulation at sub-G0/G1 phase at 10 uM after 72 hrs by propidium iodide staining based flow cytometry (reference value: 6.7%); type: cell-based
[36] = Induction of apoptosis in HPNE cells assessed as accumulation at sub-G0/G1 phase at 10 uM after 24 hrs by propidium iodide staining based flow cytometry (reference value: 0.6%); type: cell-based; conditions: human
[37] = Induction of apoptosis in HPNE cells assessed as accumulation at sub-G0/G1 phase at 10 uM after 48 hrs by propidium iodide staining based flow cytometry (reference value: 0.7%); type: cell-based; conditions: human
[38] = Induction of apoptosis in HPNE cells assessed as accumulation at sub-G0/G1 phase at 10 uM after 72 hrs by propidium iodide staining based flow cytometry (reference value: 6.6%); type: cell-based; conditions: human

## CCCCCCCC/C=C\CCCCCCCCOC[C@@H]1[C@@H](O)[C@@H](O)CN1C(C)C
SK-BR-3
  growth inhibition (GI): Active
PK9 [1]
  growth inhibition (GI): inactive
PANC-1 [2]
  growth inhibition (GI): inactive

## CCCCCCCC/C=C\CCCCCCCCOC[C@@H]1[C@@H](O)[C@@H](O)CN1C
SK-BR-3
  growth inhibition (GI): Active
PK9 [1]
  growth inhibition (GI): inactive
PANC-1 [2]
  growth inhibition (GI): inactive

## CCCCCCCC/C=C/CCCCCCCCOC[C@@H]1CCCN1.Cl
BXPC-3 [3]
  IC50: 5.3 µM
PANC-1 [4]
  IC50: 5.3 µM
MIA PaCa-2
  IC50: 4.2 µM
PK9 [5]
  IC50: 9.2 µM
PANC-1 [6]
  Activity: 1.2%
PANC-1 [7]
  Activity: 5.3%
PANC-1 [8]
  Activity: 2.5%
PANC-1 [9]
  Activity: 1.6%
PANC-1 [10]
  Activity: 2.6%
PANC-1 [11]
  Activity: 8%

## CCCCCCCC/C=C\CCCCCCCCOC[C@@H]1[C@@H](O)[C@@H](O)CN1CCCC
SK-BR-3
  growth inhibition (GI): Active
PK9 [1]
  growth inhibition (GI): inactive
PANC-1 [2]
  growth inhibition (GI): inactive

## C(=C\c1ccc(-c2ccccc2)cc1)/CCCCCCCCOC[C@@H]1CCCN1.Cl
BXPC-3 [3]
  IC50: 5.3 µM
PANC-1 [4]
  IC50: 5.3 µM
MIA PaCa-2
  IC50: 3.7 µM
PK9 [5]
  IC50: 3.9 µM
PANC-1 [6]
  Activity: 0.9%
PANC-1 [7]
  Activity: 3.2%
PANC-1 [8]
  Activity: 10.6%
PANC-1 [9]
  Activity: 1%
PANC-1 [10]
  Activity: 2.3%
PANC-1 [11]
  Activity: 12.2%

## C(=C\c1ccc(-c2ccccc2)cc1)/CCCCCCOC[C@@H]1CCCN1.Cl
BXPC-3 [3]
  IC50: 5.7 µM
PANC-1 [4]
  IC50: 5.3 µM
MIA PaCa-2
  IC50: 2.9 µM
PK9 [5]
  IC50: 3.2 µM
PANC-1 [6]
  Activity: 2.3%
PANC-1 [7]
  Activity: 2.1%
PANC-1 [8]
  Activity: 4.3%
PANC-1 [9]
  Activity: 0.9%
PANC-1 [10]
  Activity: 1.6%
PANC-1 [11]
  Activity: 4.7%

## C(=C\c1ccc(-c2ccccc2)cc1)/CCCCCCCCCOC[C@@H]1CCCN1.Cl
BXPC-3 [3]
  IC50: 7 µM
PANC-1 [4]
  IC50: 7.3 µM
MIA PaCa-2
  IC50: 8.3 µM
PK9 [5]
  IC50: 5.5 µM
PANC-1 [6]
  Activity: 7%
PANC-1 [7]
  Activity: 2.2%
PANC-1 [8]
  Activity: 11.6%
PANC-1 [9]
  Activity: 1.6%
PANC-1 [10]
  Activity: 1.9%
PANC-1 [11]
  Activity: 8.4%

## CCCCCCCC/C=C\CCCCCCCCOC[C@@H]1[C@@H](O)[C@@H](O)CN1C(N)=O
SK-BR-3
  growth inhibition (GI): Active
PK9 [1]
  growth inhibition (GI): inactive
PANC-1 [2]
  growth inhibition (GI): inactive

## CCCCCCCC/C=C\CCCCCCCCOC[C@@H]1[C@@H](O)[C@@H](O)CN1Cc1ccccc1
SK-BR-3
  growth inhibition (GI): Active
PK9 [1]
  growth inhibition (GI): inactive
PANC-1 [2]
  growth inhibition (GI): inactive

## CCCCCCCC/C=C\CCCCCCCCOCC[C@H]1NC[C@H](O)[C@@H]1O
BXPC-3 [12]
  Activity: 17.7%
BXPC-3 [13]
  Activity: 32.5%
BXPC-3 [14]
  Activity: 46.2%
BXPC-3 [15]
  Activity: 2.3%
BXPC-3 [16]
  Activity: 3.4%
BXPC-3 [17]
  Activity: 4.1%
PANC-1 [6]
  Activity: 5%
PANC-1 [7]
  Activity: 13.6%
PANC-1 [8]
  Activity: 22.6%
PK9 [18]
  Activity: 8.3%
PK9 [19]
  Activity: 30.5%
PK9 [20]
  Activity: 37.7%
[21]
  Activity: 63.8%
[22]
  Activity: 67.5%
[23]
  Activity: 73%
PANC-1 [9]
  Activity: 4.7%
PANC-1 [10]
  Activity: 3.9%
PANC-1 [11]
  Activity: 9.7%
BXPC-3 [24]
  Activity: 4.6%
BXPC-3 [25]
  Activity: 11.5%
BXPC-3 [26]
  Activity: 14.6%
BXPC-3 [27]
  Activity: 3%
BXPC-3 [28]
  Activity: 3.1%
BXPC-3 [29]
  Activity: 3.1%
PK9 [30]
  Activity: 2.8%
PK9 [31]
  Activity: 3.4%
PK9 [32]
  Activity: 2.7%
Fibroblast [33]
  Activity: 8.7%
Fibroblast [34]
  Activity: 8.2%
Fibroblast [35]
  Activity: 9.2%
[36]
  Activity: 12.1%
[37]
  Activity: 22.2%
[38]
  Activity: 62.8%

## CCCCCCCC/C=C\CCCCCCCCOC[C@@H]1[C@@H](O)[C@@H](O)CN1C(C)=O
SK-BR-3
  growth inhibition (GI): Active
PK9 [1]
  growth inhibition (GI): inactive
PANC-1 [2]
  growth inhibition (GI): inactive
